Structures are written as SMILES. A value given as a limit tells only on which side of the number the result lay.

Data on 24 molecules can be found in US9023851B2 (Merck Patent GmbH, priority 2010, dated 2015).

The target of test [1] is T1, Syk (Homo sapiens, UniProt P43405).
T1 construct: purchased BPS Bioscience, CA, USA
Briefly: Syk enzyme assay (flash plate / Caliper mobility shift). It is filed as biochemical. As to the method:
The kinase assay is performed either as 384-well Flashplate assay (for e.g. Topcount measurement) or as 384-well Image-Flashplate assay (for LEADseeker measurement).
2.5 nM SYK, 400 nM Biotin-Aha-Aha-[…] and 10 μM ATP (spiked with 0.3 μCi 33P-ATP/well) are incubated in a total volume of 50 μl (60 mM Hepes, 10 mM MgCl2, 1.2 mM Dithiothreitol, 0.02% Brij35, 0.1% BSA, pH 7.5) with or without test compound for 1 hours at 30° C. The reaction is stopped with 25 μl 200 mM EDTA. After 30 Min at 30° C. the liquid is removed and each well washed thrice with 100 μl 0.9% sodium chloride solution. Non-specific reaction is determined in presence of 0.1 μM Staurosporine. Radioactivity is measured with Topcount (when using Flashplates) or with LEADseeker (when using Image-Flashplates) respectively. Results (e.g. IC50-values) are calculated with program tools provided by the IT-department (e.g. Symyx Assay Explorer, Genedata Screener).
(§1) Enzymatic Assays Using the Caliper LifeSciences Technology
(§2) The assays described here are performed on the Caliper Life Sciences LC3000 system This technology provides data on enzyme activity via measurement of the relative amounts of phosphorylated or unphosphorylated fluorescently labelled substrate peptide at the end of an enzymatic reaction. These different states of peptide are resolved by applying a potential difference across the sample. The presence of the charged phosphate group on the product (as opposed to the substrate) causes a different peptide mobility between the two peptides. This is visualized by excitation of the fluorescent label on the substrate and product peptides and represented as peaks within the analysis software.
(§3) In order to measure inhibitor activity of kinase inhibitors on this technology, a TTP Mosquito liquid handling instrument is used to place 0.25 ul of the appropriate concentration of inhibitor in 100% DMSO (for a dose response curve calculation) into each well of a 384-well plate. To this reaction components are added to a final volume of 25 ul. The table below indicates the sequences and concentrations for the assays described in this report. Standard components are 1 mM DTT (Sigma, D0632), 1 mM MgCl2 (Sigma, M1028), 100 mM HEPES pH 7.5 (Calbiochem, 391338), 0.015% Brij-35 (Sigma, B4184).
(§4) The reaction is incubated for 90 min at 25 C, and then stopped by the addition of 70 ul of Stop buffer (100 mM HEPES pH 7.5, 0.015% Brij-35, 10 mM EDTA (Sigma, E7889)).
(§5) The plate is read on a Caliper LC 3000 in an Off-Chip mobility shift assay format, on a 12-sipper chip. Unphosphorylated substrate and phosphorylated product peptide resolve as separate peaks allowing direct measurement of percentage of conversion of substrate to product. The percent conversion can be plotted against concentration of inhibitor to produce a sigmoidal dose response curve, from which an IC50 can be calculated using GeneData Condoseo or a similar product. Cellular activity assays

For test [2], the target named is T2, KDR (Homo sapiens, UniProt P35968).
T2 construct: purchased BPS Bioscience, CA, USA
The experiment in a line: KDR enzymatic assay (Caliper LifeSciences technology). The test is classed as biochemical. The protocol:
as §1, §2, §3, §4, §5

T2 sequence (P35968 20-1356): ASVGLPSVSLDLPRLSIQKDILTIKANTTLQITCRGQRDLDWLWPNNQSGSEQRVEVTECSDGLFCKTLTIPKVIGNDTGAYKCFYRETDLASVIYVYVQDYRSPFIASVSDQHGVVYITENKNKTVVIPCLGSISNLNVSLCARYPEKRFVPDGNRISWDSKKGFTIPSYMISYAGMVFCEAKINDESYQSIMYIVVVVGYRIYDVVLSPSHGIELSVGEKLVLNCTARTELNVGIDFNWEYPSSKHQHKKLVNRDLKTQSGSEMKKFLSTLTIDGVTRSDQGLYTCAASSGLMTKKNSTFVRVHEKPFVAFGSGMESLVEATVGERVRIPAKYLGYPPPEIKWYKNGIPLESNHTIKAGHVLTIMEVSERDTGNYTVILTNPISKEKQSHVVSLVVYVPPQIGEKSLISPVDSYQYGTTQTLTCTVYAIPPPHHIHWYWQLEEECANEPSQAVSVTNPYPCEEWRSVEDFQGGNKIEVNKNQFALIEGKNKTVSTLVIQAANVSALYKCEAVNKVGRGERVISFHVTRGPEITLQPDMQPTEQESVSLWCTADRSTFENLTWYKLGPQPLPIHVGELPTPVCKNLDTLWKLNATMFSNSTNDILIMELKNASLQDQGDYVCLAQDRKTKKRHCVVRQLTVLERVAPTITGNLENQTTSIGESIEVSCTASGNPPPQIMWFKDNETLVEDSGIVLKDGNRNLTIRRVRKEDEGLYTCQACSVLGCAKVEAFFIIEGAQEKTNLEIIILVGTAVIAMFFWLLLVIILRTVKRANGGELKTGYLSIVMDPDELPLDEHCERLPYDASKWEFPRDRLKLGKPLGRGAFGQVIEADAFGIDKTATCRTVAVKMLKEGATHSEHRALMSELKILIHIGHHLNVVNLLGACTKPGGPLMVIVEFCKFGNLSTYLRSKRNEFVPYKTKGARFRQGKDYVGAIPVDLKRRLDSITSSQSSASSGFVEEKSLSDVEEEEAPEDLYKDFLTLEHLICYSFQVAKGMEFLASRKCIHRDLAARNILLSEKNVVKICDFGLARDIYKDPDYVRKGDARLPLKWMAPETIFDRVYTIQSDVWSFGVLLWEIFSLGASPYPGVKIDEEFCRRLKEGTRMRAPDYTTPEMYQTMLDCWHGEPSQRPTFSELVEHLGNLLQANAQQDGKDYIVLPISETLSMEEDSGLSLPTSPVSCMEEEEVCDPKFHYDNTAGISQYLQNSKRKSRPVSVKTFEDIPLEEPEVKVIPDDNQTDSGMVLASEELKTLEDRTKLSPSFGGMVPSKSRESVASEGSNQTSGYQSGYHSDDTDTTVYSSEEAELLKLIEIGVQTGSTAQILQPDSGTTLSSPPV

Consider `O=C1Nc2cc(Nc3nc4c(Cl)nccn4n3)ccc2OC1(F)F` [Example B7, 6-(8-Chloro-[1,2,4]triazolo[1,5-a]pyrazin-2-ylamino)-2,2-difluoro-4H-benzo[1,4]oxazin-3-one], for which the IC50 (usually the concentration at which inhibition is half-maximal) in test [1] was in the range of 0.3 to 3 µM.

For the molecule `Clc1nccn2nc(Nc3ccc4cnn(Cc5ccccc5)c4c3)nc12` [Example B9, (1-Benzyl-1H-indazol-6-yl)-(8-chloro-[1,2,4]triazolo[1,5-a]pyrazin-2-yl)-amine], the IC50 in test [1] is 3 to 50 µM.

For `Cc1cc(C)cc(Nc2nc3c(-c4ccccc4)nccn3n2)c1` [Example C7, (3,5-Dimethyl-phenyl)-(8-phenyl-[1,2,4]triazolo[1,5-a]pyrazin-2-yl)-amine], the IC50 in test [1] was in the range of 0.3 to 3 µM.

As for `FC(F)(F)c1cccc(Nc2nc3c(-c4ccccc4)nccn3n2)c1` [Example C9, (8-Phenyl-[1,2,4]triazolo[1,5-a]pyrazin-2-yl)-(3-trifluoromethyl-phenyl)-amine], the IC50 in test [2] lay in the range of 3 to 50 µM; in test [1], 0.3 to 3 µM.

Take `c1ccc(Nc2nc3c(-c4ccccc4)nccn3n2)cc1` [Example C10, Phenyl-(8-phenyl-[1,2,4]triazolo[1,5-a]pyrazin-2-yl)-amine]: the IC50 in test [2] and in test [1] was 0.3 to 3 µM in each case.

For the molecule `FC(F)(F)c1cccc(Nc2nc3c(-c4ccc(N5CCOCC5)cc4)nccn3n2)c1` [Example C12, [8-(4-Morpholin-4-yl-phenyl)-[1,2,4]triazolo[1,5-a]pyrazin-2-yl]-(3-trifluoromethyl-phenyl)-amine], in test [1], the IC50 lay in the range of 3 to 50 µM.

With `COc1cc(OC)cc(-c2nccn3nc(Nc4cc(C)cc(C)c4)nc23)c1` [Example C15, [8-(3,5-Dimethoxy-phenyl)-[1,2,4]triazolo[1,5-a]pyrazin-2-yl]-(3,5-dimethyl-phenyl)-amine], the IC50 in test [2] was 3 to 50 µM; in test [1], 0.3 to 3 µM.

`COc1cc(Nc2nc3c(-c4cc(OC)cc(OC)c4)nccn3n2)cc(OC)c1` [Example C16, (3,5-Dimethoxy-phenyl)-[8-(3,5-dimethoxy-phenyl)-[1,2,4]triazolo[1,5-a]pyrazin-2-yl]-amine]: the half-inhibitory concentration (IC50) in test [1] was less than 0.3 µM.

Turning to `COc1cc(OC)cc(-c2nccn3nc(Nc4cccc(C)c4)nc23)c1` [Example C17, [8-(3,5-Dimethoxy-phenyl)-[1,2,4]triazolo[1,5-a]pyrazin-2-yl]-m-tolyl-amine], the IC50 in test [2] lay in the range of 3 to 50 µM; in test [1], 0.3 to 3 µM.

In the case of `COCCCNc1nccn2nc(Nc3cc(C)cc(C)c3)nc12` [Example C37, N^2-(3,5-Dimethyl-phenyl)-N^8-(3-methoxy-propyl)-[1,2,4]triazolo[1,5-a]pyrazine-2,8-diamine], the IC50 in test [2] and in test [1] was 3 to 50 µM each time.

On to `Cc1cccc(Nc2nc3c(NCCN)nccn3n2)c1` [Example C45, N^8-(2-Amino-ethyl)-N^2-m-tolyl-[1,2,4]triazolo[1,5-a]pyrazine-2,8-diamine], for which the IC50 in test [2] and in test [1] was 3 to 50 µM each time.

For the molecule `NCCNc1nccn2nc(Nc3ccccc3)nc12` [Example C49, N^8-(2-Amino-ethyl)-N^2-phenyl-[1,2,4]triazolo[1,5-a]pyrazine-2,8-diamine], the half-maximal inhibitory concentration (IC50) in test [2] and in test [1] was 3 to 50 µM each time.

Turning to `COCCCNc1nccn2nc(Nc3ccccc3)nc12` [Example C53, N^8-(3-Methoxy-propyl)-N^2-phenyl-[1,2,4]triazolo[1,5-a]pyrazine-2,8-diamine], the IC50 in test [2] and in test [1] was 3 to 50 µM in each case.

Turning to `COc1cc(Nc2nc3c(NC4CCCCC4N)nccn3n2)cc(OC)c1` (stereo not shown) [Example C54, N^8-(2-Amino-cyclohexyl)-N^2-(3,5-dimethoxy-phenyl)-[1,2,4]triazolo[1,5-a]pyrazine-2,8-diamine], the IC50 in test [1] fell in the range of 3 to 50 µM.

As for `Cc1cc(C)cc(Nc2nc3c(NC4CCCCC4N)nccn3n2)c1` (stereo not shown) [Example C56, N^8-(2-Amino-cyclohexyl)-N^2-(3,5-dimethyl-phenyl)-[1,2,4]triazolo[1,5-a]pyrazine-2,8-diamine], the IC50 in test [2] and in test [1] was 3 to 50 µM throughout.

Take `Cc1cccc(Nc2nc3c(NC4CCCCC4N)nccn3n2)c1` (stereo not shown) [Example C57, N^8-(2-Amino-cyclohexyl)-N^2-m-tolyl-[1,2,4]triazolo[1,5-a]pyrazine-2,8-diamine]: the IC50 in test [2] and in test [1] was 3 to 50 µM each time.

As for `Cn1ccnc1Sc1ccc(Nc2nccn3nc(Nc4cccc(C(F)(F)F)c4)nc23)cc1Cl` [Example C68, N^8-[3-Chloro-4-(1-methyl-1H-imidazol-2-ylsulfanyl)-phenyl]-N^2-(3-trifluoromethyl-phenyl)-[1,2,4]triazolo[1,5-a]pyrazine-2,8-diamine], the 50% inhibitory concentration (IC50) in test [1] fell in the range of 3 to 50 µM.

As to `Cc1cccc(Nc2nc3c(Nc4ccc5c(c4)NC(=O)C(F)(F)O5)nccn3n2)c1` [Example C71, 2,2-Difluoro-6-(2-m-tolylamino-[1,2,4]triazolo[1,5-a]pyrazin-8-ylamino)-4H-benzo[1,4]oxazin-3-one], in test [1], the IC50 lay within 3 to 50 µM.

For `Cc1cccc(Nc2nc3c(Nc4cccc(C(F)(F)F)c4)nccn3n2)c1` [Example C73, N^2-m-Tolyl-N^8-(3-trifluoromethyl-phenyl)-[1,2,4]triazolo[1,5-a]pyrazine-2,8-diamine], the IC50 in test [1] is 3 to 50 µM.

Consider `COc1ccc(Nc2nc3c(-c4cccc(CN)c4)nccn3n2)cn1` [Example C254, [8-(3-Aminomethyl-phenyl)-[1,2,4]triazolo[1,5-a]pyrazin-2-yl]-(6-methoxy-pyridin-3-yl)-amine], for which the half-maximal inhibitory concentration (IC50) in test [1] lay within 0.3 to 3 µM.

Consider `COc1cc(Nc2nc3c(-c4cnc5ccccc5c4)nccn3n2)cc(OC)c1` [Example C260, (3,5-Dimethoxy-phenyl)-(8-quinolin-3-yl-[1,2,4]triazolo[1,5-a]pyrazin-2-yl)-amine], for which the IC50 in test [1] was less than 0.3 µM.

With `COc1ccc(Nc2nc3c(-c4cnc5ccccc5c4)nccn3n2)cn1` [Example C262, (6-Methoxy-pyridin-3-yl)-(8-quinolin-3-yl-[1,2,4]triazolo[1,5-a]pyrazin-2-yl)-amine], the IC50 in test [1] is 0.3 to 3 µM.

In the case of `COc1ccc(Nc2nc3c(-c4cccc(NS(C)(=O)=O)c4)nccn3n2)cn1` [Example C274, N-{3-[2-(6-Methoxy-pyridin-3-ylamino)-[1,2,4]triazolo[1,5-a]pyrazin-8-yl]-phenyl}-methanesulfonamide], the IC50 in test [1] was 0.3 to 3 µM.

`Cc1c(N)cccc1-c1nccn2nc(Nc3ccc(N4CCOCC4)cc3)nc12` [Example C293, [8-(3-Amino-2-methyl-phenyl)-[1,2,4]triazolo[1,5-a]pyrazin-2-yl]-(4-morpholin-4-yl-phenyl)-amine]: the IC50 in test [1] was 0.3 to 3 µM.
